This test deals with T1, Dihydrofolate reductase (Pneumocystis carinii, UniProt P16184).
T1 sequence (P16184 whole entry): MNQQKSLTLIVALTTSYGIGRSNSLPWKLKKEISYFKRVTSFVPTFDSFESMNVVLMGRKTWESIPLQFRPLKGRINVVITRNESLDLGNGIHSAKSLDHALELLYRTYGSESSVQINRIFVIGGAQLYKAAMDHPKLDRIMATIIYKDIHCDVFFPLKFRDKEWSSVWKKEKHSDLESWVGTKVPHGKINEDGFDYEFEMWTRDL

IC50 data for one compound are collected here from ChEMBL document CHEMBL1145311 (Bioorg Med Chem Lett, 2006).

Description: Inhibition of Pneumocystis carinii DHFR

Turning to `Nc1nc(N)c2nc(CN3c4ccccc4CCc4ccccc43)cnc2n1`, the IC50 (in general, the midpoint of a concentration-inhibition curve) came out at 210 nM.
